Consider 14 compounds from article PMC9381947 (Antiviral Research, 2022).

Assay [1] addresses T1, SARS-CoV-2 NSP13 helicase (Severe acute respiratory syndrome coronavirus 2, UniProt P0DTD1). Briefly: biochemical. As to conditions: for inhibition at 20 µM: read-out: inhibitory activity against NSP13, confirmation screen; for NSP13 helicase inhibition relative to PUG: compared with PUG.
Assay [2] has as its target T1, SARS-CoV-2 NSP13 helicase. In words: Gel-based DNA unwinding assay. The format is biochemical. Conditions: PUG at concentrations over 1 μM.
The target of assay [3] is NSP13/DNA complex (Severe acute respiratory syndrome coronavirus 2, UniProt P0DTD1). Briefly: Electrophoretic mobility shift assay. As to conditions: pre-incubation of NSP13 with compound, FAM-labeled 5ˊ flap DNA. The assay is classed as biochemical, SARS-CoV-2.
In assay [4] the test system is human adenovirus (HAdV) type 7 (HAdV-7). In words: Antiviral assay in A549 cells. As to conditions: 48 h, qRT-PCR, listed as PUG. Background: Real-time PCR tracks product formation cycle by cycle.
In assay [5] the target is SARS-CoV-2 NSP13 ATPase activity (Severe acute respiratory syndrome coronavirus 2, UniProt P0DTD1). In words: Luciferase-coupled ATP assay. The format is biochemical.
In assay [6] the target is SARS-CoV-2 NSP13 (Severe acute respiratory syndrome coronavirus 2, UniProt P0DTD1). In words: Surface plasmon resonance. As to conditions: SPR, NSP13 coupled to CM5 chip. The assay is classed as binding.
[7] abbreviates: IC50 against NSP13 helicase activity, Table 1.
The mark [8] stands for this setting: read-out: IC50 against NSP13 helicase activity.
Where [9] appears, read: IC50, DNA unwinding activity of NSP13, text and figures.
[10] abbreviates: read-out: IC50 against NSP13 helicase activity, Table 1.

“Also recorded” adds a separate entry of the source. Like-named read-outs stand apart in the source and are kept apart here.

One may read the IC50 as the concentration that inhibits the measured activity by half. For orientation: Kd means the equilibrium constant for the complex coming apart. High values mean weaker binding, low ones tighter binding.

The compound `Oc1cc(O)c2c(c1)O[C@H](c1cc(O)c(O)c(O)c1)[C@H](O)[C@H]2c1c(O)cc(O)c2c1O[C@H](c1cc(O)c(O)c(O)c1)[C@H](O)[C@H]2c1c(O)cc(O)c2c1O[C@H](c1cc(O)c(O)c(O)c1)[C@H](O)C2` [Katacine] registered an IC50 in assay [1] (setting [7]) of 5980 nM.
With `O=C(O)CSc1cc(NS(=O)(=O)c2ccc(Br)cc2)c2ccccc2c1O` [UMI-77, reference compound], in assay [1] (setting [8]), the IC50 stood at 4380 nM.
As for `O=c1c(O)c(-c2cc(O)c(O)c(O)c2)oc2cc(O)cc(O)c12` [Myricetin, reference compound], in assay [1], the inhibition at 20 µM was > 70%.
Consider `O=C1OC[C@H]2OC(O)[C@H](O)[C@@H](O)[C@@H]2OC(=O)c2cc(O)c(O)c(O)c2-c2c(O)c(O)c3oc(=O)c4c(c(O)c(O)c5oc(=O)c2c3c54)-c2c1cc(O)c(O)c2O` (mixture of isomers) [PUL, punicalin], for which the “helicase activity of NSP13 in gel-based DNA unwinding assay” value in assay [2] is on record as “slightly weak inhibitory effect than PUG”. Further, in assay [3], the “NSP13/DNA complex formation (EMSA)” value is given as “reduced the complex formation in a concentration-dependent manner”. Also, the IC50 in assay [1] (setting [9]) is ~540 nM. The “NSP13 helicase inhibition relative to PUG” value in assay [1] is given as “comparable inhibitory activity”.
Turning to `O=c1cc(-c2ccc(O)cc2)oc2cc(O)c(O)c(O)c12` [Scutellarein, reference compound], in assay [1], the inhibition at 20 µM was > 70%.
With `O=C([O-])c1cc(=O)[nH]c(=O)[nH]1.O=C([O-])c1cc(=O)[nH]c(=O)[nH]1.[Zn+2]` [Zinc Orotate], the IC50 in assay [1] (setting [10]) turned out to be 4120 nM.
For the compound `O=C1O[C@@H]2[C@@H](OC(=O)c3cc(O)c(O)c(O)c3-c3c1cc(O)c(O)c3O)[C@H](O)O[C@@H]1COC(=O)c3cc(O)c(O)c(O)c3-c3c(O)c(O)c4oc(=O)c5c(c(O)c(O)c6oc(=O)c3c4c65)-c3c(cc(O)c(O)c3O)C(=O)O[C@@H]21` [Punicalagin, 2,3-hexahydroxydiphenoyl-gallagyl-D-glucose], in assay [4], the “antiviral effect against HAdV-7” value is on record as “did not show detectable antiviral effects”. Moreover, in assay [5] (with increasing concentrations of PUG), the “Km of NSP13 ATPase” value is listed as “increased”. In addition, the “helicase activity of NSP13 in gel-based DNA unwinding assay” value in assay [2] is “nearly abolished”. The Kd in assay [6] was determined as 21.6 nM. Moreover, the concentration for half-maximal inhibition (IC50) is 427 nM in assay [1] (setting [9]) and 430 nM in assay [1] (setting [7]).
With “Bismuth subsalicylat [reference compound]”, the “inhibitory activity against NSP13, confirmation screen” value in assay [1] (20 µM) is “more than 70%”.
For `O=C(N/N=C/c1cc(O)c(O)cc1O)c1cc2ccccc2cc1O` [Dyngo-4a, reference compound], the IC50 in assay [1] (setting [10]) amounted to 630 nM.
In the case of Tannic acid, the IC50 in assay [1] (setting [10]) worked out at 1250 nM.
For the compound `CC(C)c1cc2c(c(O)c1O)[C@@]13CCCC(C)(C)[C@@H]1[C@H](OC3=O)[C@H]2O` [Rosmanol], in assay [1] (setting [7]), the IC50 came out at 8930 nM.
With `O=c1oc2c(O)c(O)cc3c(=O)oc4c(O)c(O)cc1c4c23` [EA, ellagic acid], the “inhibition of ATP hydrolysis by NSP13” value in assay [5] (10 μM ATP) was “much weaker inhibition”. The “NSP13/DNA complex formation (EMSA)” value in assay [3] is listed as “reduced the complex formation in a concentration-dependent manner; also recorded: much weaker inhibition”. For the same compound, in assay [1] (IC50, DNA unwinding activity of NSP13, text), the half-inhibitory concentration (IC50) is ~2800 nM. In addition, the “NSP13 helicase inhibition relative to PUG” value in assay [1] is reported as “about six times weaker”.
Regarding `O=c1cc(-c2ccccc2)oc2cc(O)c(O)c(O)c12` [Baicalein, reference compound], in assay [1], the inhibition at 20 µM was > 70%.
Take `CC(C)[C@H](NC(=O)CCCCCN1C(=O)C=CC1=O)C(=O)N[C@@H](CCCNC(N)=O)C(=O)Nc1ccc(COC(=O)Oc2ccc([N+](=O)[O-])cc2)cc1` [MC-Val-Cit-PABC-PNP]: the half-maximal inhibitory concentration (IC50) in assay [1] (setting [8]) worked out at 2450 nM.
